This note sets out measurements from PubChem BioAssay (NCI).

“And” between values parts separate entries of the source, which are not always exact repeats. Equal entries are not always repeated.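 Dose response: 5 concentrations. Exposure: 48 h. Format: 96-well plates. Endpoint: linear interpolation; highest concentration if not reached. The concentration for 50% growth inhibition is given as GI50. TGI denotes the concentration required for complete inhibition of growth.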

The first test concerns CAKI-1 renal. The test can be described thus: growth of human tumour cells (NCI), 48 h.
Take `COc1ccc(O)c(C(=O)c2ccc(C(=O)N[C@H]3CCCNC[C@@H]3NC(=O)c3ccncc3)cc2)c1F`: the GI50 was above 25 µM and the TGI is above 25 µM.
For `COc1ccc(-n2c(C)cc(-c3ccccc3)c2C)cc1`, the GI50 is 1.57 µM and the TGI worked out at 7.55 µM.
The like results for `O[C@H](c1cc(C(F)(F)F)nc2c(C(F)(F)F)cccc12)[C@@H]1CCCCN1` were, in that order, 1.96 µM and 7.29 µM.
The like results for `CCCOc1ccc2sc(NC(=O)OC)nc2c1` were, in that order, 2.87 µM and above 100 µM.
`O=C(O)c1ccc(OCc2ccccc2)c(Cl)c1` displayed a TGI above 100 µM.
As to `OCCCNc1nccc(-c2c(-c3ccc(F)cc3)nn3cc(C(F)(F)F)ccc23)n1`, the GI50 is above 21.7 µM and the TGI is above 25 µM.
The like results for `O=S(=O)(Nc1ccc(F)cc1F)c1ccc(-c2cnc(C3CC3)o2)cc1` were, in that order, 0.562 µM and above 65.3 µM.
For `O=C(CSC1CCc2ccccc21)N/N=C/c1ccccc1O` (stereo not drawn), the GI50 was 1.93 µM and the TGI was determined as 12.7 µM.
The like results for `COc1cc(C(=O)N2CCN(c3ncccn3)CC2)c(N)cc1OCc1ccccc1` were, in that order, 11.9 µM and above 100 µM.
As to `CCOc1ccncc1[N+](=O)[O-]`, the TGI was above 100 µM.
The same measure, in the same setting: for `C=C1C(=O)OC2CC(C)C3(O)CCC(=O)C3(C)CC12` (stereo not drawn) the value was 44.4 µM; for `Cc1nc2sc3c(c2c(=O)[nH]1)CCCC3`, above 100 µM.
`O=C1NC(=O)/C(=C\c2ccccc2)C2=C1CCCC2`: the GI50 is 5.63 µM and the TGI was found to be 17.3 µM.
`O=C(Nc1ccc(F)cc1)c1cc(S(=O)(=O)Nc2nc3ccccc3o2)c(SCc2ccccc2)cc1Cl`: the GI50 is 18.4 µM and the TGI amounted to 37.7 µM.
As to `C#COc1cccc(Nc2c(C#N)cnc3ncc(NC(=O)CCl)cc23)c1`, the GI50 is above 62.5 µM and the TGI was above 62.5 µM.
On to `CC[C@H]1CN2CCc3cc(OC)c(OC)cc3[C@@H]2C[C@@H]1C[C@H]1NCCc2c1[nH]c1ccc(O)cc21`, for which the TGI was 0.614 µM and 0.68 µM.
Turning to `CCCCCOc1ccc(/C=N/Nc2cc(C)nc3ccc(Br)cc23)cc1`, the GI50 was 1.63 µM and the TGI came to 2.99 µM.

Another test has as its system HS 578T breast. As to the kind of experiment: growth of human tumour cells (NCI), 48 h.
As to `COc1ccc(O)c(C(=O)c2ccc(C(=O)N[C@H]3CCCNC[C@@H]3NC(=O)c3ccncc3)cc2)c1F`, the GI50 was 0.0882 µM and the TGI came out at 12.5 µM.
Taken in the same sequence, the figures for `COc1ccc(-n2c(C)cc(-c3ccccc3)c2C)cc1` were 4.58 µM and above 100 µM.
Taken in the same sequence, the figures for `O[C@H](c1cc(C(F)(F)F)nc2c(C(F)(F)F)cccc12)[C@@H]1CCCCN1` were 4.35 µM and 25.5 µM.
In the case of `CCCOc1ccc2sc(NC(=O)OC)nc2c1`, the GI50 is 3.48 µM and the TGI was above 100 µM.
Compound `O=C(O)c1ccc(OCc2ccccc2)c(Cl)c1` gave a TGI above 100 µM.
With `OCCCNc1nccc(-c2c(-c3ccc(F)cc3)nn3cc(C(F)(F)F)ccc23)n1`, the GI50 is 19.2 µM and the TGI was above 25 µM.
The like results for `O=S(=O)(Nc1ccc(F)cc1F)c1ccc(-c2cnc(C3CC3)o2)cc1` were, in that order, 0.545 µM and 22.7 µM.
The like results for `O=C(CSC1CCc2ccccc21)N/N=C/c1ccccc1O` (stereo not drawn) were, in that order, 11.7 µM and 67.2 µM.
The like results for `COc1cc(C(=O)N2CCN(c3ncccn3)CC2)c(N)cc1OCc1ccccc1` were, in that order, above 100 µM and above 100 µM.
With `CCOc1ccncc1[N+](=O)[O-]`, the TGI is above 100 µM.
The same measure, in the same setting: the figure for `C=C1C(=O)OC2CC(C)C3(O)CCC(=O)C3(C)CC12` (stereo not drawn) is 61.4 µM; for `Cc1nc2sc3c(c2c(=O)[nH]1)CCCC3` it is above 100 µM.
Take `O=C1NC(=O)/C(=C\c2ccccc2)C2=C1CCCC2`: the GI50 is 3.46 µM and the TGI was determined as 22.8 µM.
Taken in the same sequence, the figures for `O=C(Nc1ccc(F)cc1)c1cc(S(=O)(=O)Nc2nc3ccccc3o2)c(SCc2ccccc2)cc1Cl` were 19.1 µM and 44.5 µM.
The like results for `C#COc1cccc(Nc2c(C#N)cnc3ncc(NC(=O)CCl)cc23)c1` were, in that order, above 62.5 µM and above 62.5 µM.
For the compound `CC[C@H]1CN2CCc3cc(OC)c(OC)cc3[C@@H]2C[C@@H]1C[C@H]1NCCc2c1[nH]c1ccc(O)cc21`, the TGI is 0.0653 µM and 0.0327 µM.
As for `CCCCCOc1ccc(/C=N/Nc2cc(C)nc3ccc(Br)cc23)cc1`, the GI50 is 2.33 µM and the TGI was 5.64 µM.

The next test has as its system MCF7 breast. As to the kind of experiment: growth of human tumour cells (NCI), 48 h.
For `COc1ccc(O)c(C(=O)c2ccc(C(=O)N[C@H]3CCCNC[C@@H]3NC(=O)c3ccncc3)cc2)c1F`, the GI50 was 0.823 µM and the TGI is above 25 µM.
Taken in the same sequence, the figures for `COc1ccc(-n2c(C)cc(-c3ccccc3)c2C)cc1` were 3.58 µM and above 100 µM.
Taken in the same sequence, the figures for `O[C@H](c1cc(C(F)(F)F)nc2c(C(F)(F)F)cccc12)[C@@H]1CCCCN1` were 2.46 µM and 6.8 µM.
`CCCOc1ccc2sc(NC(=O)OC)nc2c1`: the GI50 was 1.08 µM and the TGI was above 100 µM.
For `O=C(O)c1ccc(OCc2ccccc2)c(Cl)c1`, the TGI is above 100 µM.
Consider `OCCCNc1nccc(-c2c(-c3ccc(F)cc3)nn3cc(C(F)(F)F)ccc23)n1`, for which the GI50 is 15.1 µM and the TGI is above 25 µM.
The like results for `O=S(=O)(Nc1ccc(F)cc1F)c1ccc(-c2cnc(C3CC3)o2)cc1` were, in that order, 0.398 µM and above 55.9 µM.
In the case of `O=C(CSC1CCc2ccccc21)N/N=C/c1ccccc1O` (stereo not drawn), the GI50 was 2.89 µM and the TGI is above 100 µM.
